Patent US6525059B1, “Substituted pyrazoles as p38 kinase inhibitors” (G. D. Searle & Company, priority 1998, dated 2003)
Like-named read-outs stand apart in the source and are kept apart here.

How the values were obtained:
human p38 kinase alpha = target: T1, human p38 kinase alpha (Homo sapiens, UniProt Q16539); test: p38 kinase in vitro assay, phosphorylation of biotinylated PHAS-I with gamma 32P-ATP; format: biochemical; conditions: for inhibition at 1 µM: read-out: P38 alpha kinase % inhib @ conc.
T1 construct: The coding region of the human p38a cDNA was obtained by PCR-amplification from RNA isolated from the human monocyte cell line THP.1; GST (N); made in house; host or cells: E. coli DH10B
Summary of the method: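 MKK6-activated human p38α phosphorylates biotinylated PHAS-I with γ-32P-ATP in 25 mM HEPES pH 7.5, 10 mM Mg acetate, 50 μM unlabeled ATP, 1% DMSO, 30 °C for 1 h or overnight. Compounds at 100–0.001 μM (10-fold steps, triplicate); substrate captured on streptavidin filter plates and counted by scintillation.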

TNF-α = test: LPS stimulation of TNF production by U937 cells; format: cell-based, human; conditions: for inhibition at 1 µM: U-937, @ 1.0 uM, read-out: U937 Cell % inhib @ conc.
Description: Fifty million cells in 100 ml media were induced to terminal monocytic differentiation by 24 hour incubation with 20 ng/ml phorbol 12-myristate 13-acetate (Sigma). The cells were washed by centrifugation (200×g for 5 min) and resuspended in 100 ml fresh medium. After 24-48 hours, the cells were harvested, centrifuged, and resuspended in culture medium at 2 million cells/ml.
Compounds were prepared as 10 mM stock solutions in DMSO and diluted in culture medium to yield a final DMSO concentration of 0.1% in the cell assay. LPS (E coli, 100 ng/ml final concentration) was then added at a volume of 0.02 ml. After 4 hour incubation at 37° C., the amount of TNF-α released in the culture medium was quantitated by ELISA. Inhibitory potency is expressed as IC50 (μM).
In vitro whole cell assay for measuring the ability of the compounds to inhibit TNF production in human U937 cells stimulated with LPS are shown in the column identified as: […]

[1] = p38α in vitro, PHAS-I assay procedure, read-out: p38^1 IC50
[2] = Homo sapiens, U-937, LPS-stimulated U937 cells, read-out: U937 IC50
[3] = read-out: P38 alpha kinase IC50
[4] = Homo sapiens, U-937, TNF production, LPS-stimulated human U937 cells, read-out: U937 Cell IC50

T1 sequence (Q16539 whole entry): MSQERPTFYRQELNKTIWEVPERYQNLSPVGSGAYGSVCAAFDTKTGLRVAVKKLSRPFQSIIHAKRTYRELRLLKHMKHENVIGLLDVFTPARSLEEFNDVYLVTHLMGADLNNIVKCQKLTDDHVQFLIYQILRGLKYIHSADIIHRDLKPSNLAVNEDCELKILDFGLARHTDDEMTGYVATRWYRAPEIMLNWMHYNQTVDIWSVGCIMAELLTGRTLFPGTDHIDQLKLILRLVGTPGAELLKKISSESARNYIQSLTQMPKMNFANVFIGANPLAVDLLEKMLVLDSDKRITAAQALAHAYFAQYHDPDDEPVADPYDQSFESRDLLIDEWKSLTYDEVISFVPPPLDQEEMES

IC50 (TNF-α; [4]) [nM]	inhibition at 1 µM (human p38 kinase alpha; @ 1.0 uM) [%]	Structure (SMILES)	inhibition at 1 µM (TNF-α; Homo sapiens) [%]	other results
–	–	CCN(CC)CCn1cc(-c2ccnc(F)c2)c(-c2ccc(F)cc2)n1 [Example A-278, N,N-diethyl-3-(4-fluorophenyl)-4-(2-fluoro-4-pyridinyl)-1H-pyrazole-1-ethanamine]	–	IC50 (human p38 kinase alpha; [1]): 285 nM; IC50 (TNF-α; [2]): 2300 nM
–	–	CCN(CC)CCn1cc(-c2ccnc(NCc3ccc(F)cc3)c2)c(-c2ccc(F)cc2)n1 [Example A-279, 4-[1-[2-(diethylamino)ethyl]-3-(4-fluorophenyl)-1H-pyrazol-4-yl]-N-[(4-fluorophenyl)methyl]-2-pyridinamine]	–	IC50 (human p38 kinase alpha; [1]): 5 nM; IC50 (TNF-α; [2]): 700 nM
–	–	OCCCNc1cc(-c2c[nH]nc2-c2ccc(F)cc2)ccn1 [Example A-282, 3-[[4-[3-(4-fluorophenyl)-1H-pyrazol-4-yl]-2-pyridinyl]amino]-1-propanol]	–	IC50 (human p38 kinase alpha; [1]): 45 nM; IC50 (TNF-α; [2]): 97.3 nM
–	–	CCN(CC)CCn1cc(-c2ccncc2)c(-c2ccc(F)cc2)n1 [Example A-284, N,N-diethyl-3-(4-fluorophenyl)-4-(4-pyridinyl)-1H-pyrazole-1-ethanamine]	–	IC50 (human p38 kinase alpha; [1]): 980 nM; IC50 (TNF-α; [2]): 509 nM
–	–	Fc1ccc(-c2n[nH]c(NCCCN3CCOCC3)c2-c2ccncc2)cc1 [Example A-286, N-[5-(4-fluorophenyl)-4-(4-pyridinyl)-1H-pyrazol-3-yl]-4-morpholinepropanamine]	–	IC50 (human p38 kinase alpha; [1]): 57 nM; IC50 (TNF-α; [2]): 90 nM
–	–	CN(C)CCCNc1[nH]nc(-c2ccc(F)cc2)c1-c1ccncc1 [Example A-287, N′-[5-(4-fluorophenyl)-4-(4-pyridinyl)-1H-pyrazol-3-yl]-N,N-dimethyl-1,3-propanediamine]	–	IC50 (human p38 kinase alpha; [1]): 41 nM; IC50 (TNF-α; [2]): 270 nM
–	–	C#CCNc1[nH]nc(-c2ccc(F)cc2)c1-c1ccncc1 [Example A-288, 5-(4-fluorophenyl)-N-2-propynyl-4-(4-pyridinyl)-1H-pyrazol-3-amine]	–	IC50 (human p38 kinase alpha; [1]): 17 nM; IC50 (TNF-α; [2]): 300 nM
–	–	Fc1ccc(-c2n[nH]cc2-c2ccnc3ccccc23)cc1 [Example A-291]	–	IC50 (human p38 kinase alpha; [1]): 388 nM; IC50 (TNF-α; [2]): 1130 nM
–	–	COC(=O)CNc1n[nH]c(-c2ccc(F)cc2)c1-c1ccncc1 [Example A-292, N-[5-(4-fluorophenyl)-4-(4-pyridinyl)-1H-pyrazol-3-yl]glycine methyl ester]	–	IC50 (human p38 kinase alpha; [1]): 1150 nM; IC50 (TNF-α; [2]): > 10000 nM
–	–	C#CCn1cc(-c2ccncc2)c(-c2ccc(F)cc2)n1 [Example A-294, 4-[3-(4-fluorophenyl)-1-(2-propynyl)-1H-pyrazol-4-yl]pyridine]	–	IC50 (human p38 kinase alpha; [1]): 15 nM; IC50 (TNF-α; [2]): 500 nM
–	–	C#CCn1ncc(-c2ccncc2)c1-c1ccc(F)cc1 [Example A-295, 4-[5-(4-fluorophenyl)-1-(2-propynyl)-1H-pyrazol-4-yl]pyridine]	–	IC50 (human p38 kinase alpha; [1]): 7660 nM; IC50 (TNF-α; [2]): > 10000 nM
–	–	Clc1ccc(-c2n[nH]cc2-c2ccncc2)cc1Cl [Example A-297, 4-[3-(3,4-dichlorophenyl)-1H-pyrazol-4-yl]pyridine]	–	IC50 (human p38 kinase alpha; [1]): 520 nM; IC50 (TNF-α; [2]): 170 nM
720	–	CC(C)COC(=O)NCc1[nH]nc(-c2ccc(F)cc2)c1-c1ccncc1 [Example B-0009]	–	IC50 (human p38 kinase alpha; [3]): 40 nM
650	–	CC(C)C(=O)NCc1[nH]nc(-c2ccc(F)cc2)c1-c1ccncc1 [Example B-0010]	–	IC50 (human p38 kinase alpha; [3]): 520 nM
4470	–	COc1ccccc1C(=O)NCc1[nH]nc(-c2ccc(F)cc2)c1-c1ccncc1 [Example B-0011]	–	IC50 (human p38 kinase alpha; [3]): 30 nM
–	–	C=CCOC(=O)NCc1[nH]nc(-c2ccc(F)cc2)c1-c1ccncc1 [Example B-0033]	–	P38 alpha kinase % inhib @ conc. (human p38 kinase alpha; @ 1.0 uM): 97.0% @ 1.0 uM; IC50 (TNF-α; TNF production, LPS-stimulated human U937 cells, read-out: U937 Cell IC50): 10000 nM
540	–	CC(=O)OC(C)(C)C(=O)NCc1[nH]nc(-c2ccc(F)cc2)c1-c1ccncc1 [Example B-0043]	–	IC50 (human p38 kinase alpha; [3]): 220 nM
190	–	CC(=O)NCc1[nH]nc(-c2ccc(F)cc2)c1-c1ccncc1 [Example B-0044]	–	IC50 (human p38 kinase alpha; [3]): 140 nM
–	92	O=C(NCc1[nH]nc(-c2ccc(F)cc2)c1-c1ccncc1)c1ccc(Cl)nc1 [Example B-0052]	15	–
> 1000	93	Cc1onc(-c2c(F)cccc2Cl)c1C(=O)NCc1[nH]nc(-c2ccc(F)cc2)c1-c1ccncc1 [Example B-0055]	–	–
–	96	Cc1onc(-c2ccccc2Cl)c1C(=O)NCc1[nH]nc(-c2ccc(F)cc2)c1-c1ccncc1 [Example B-0056]	21	–
–	96	CCCC(CCC)C(=O)NCc1[nH]nc(-c2ccc(F)cc2)c1-c1ccncc1 [Example B-0057]	29	–
–	79	O=C(NCc1[nH]nc(-c2ccc(F)cc2)c1-c1ccncc1)c1sc2ccccc2c1Cl [Example B-0058]	18	–
–	73	O=C(NCc1[nH]nc(-c2ccc(F)cc2)c1-c1ccncc1)c1cccc(OC(F)(F)F)c1 [Example B-0060]	22	–

IC50 (TNF-α; [4]) [nM]	inhibition at 1 µM (human p38 kinase alpha; @ 1.0 uM) [%]	Structure (SMILES)	inhibition at 1 µM (TNF-α; Homo sapiens) [%]	other results
–	90	CCCCCCCC(=O)NCc1[nH]nc(-c2ccc(F)cc2)c1-c1ccncc1 [Example B-0064]	4	–
–	94	O=C(NCc1[nH]nc(-c2ccc(F)cc2)c1-c1ccncc1)C1CCC1 [Example B-0066]	28	–
–	72	COc1ccc(C(=O)NCc2[nH]nc(-c3ccc(F)cc3)c2-c2ccncc2)cc1OC [Example B-0068]	22	–
–	86	O=C(NCc1[nH]nc(-c2ccc(F)cc2)c1-c1ccncc1)c1ccc(Cl)c(Cl)c1 [Example B-0071]	31	–
–	91	O=C(NCc1[nH]nc(-c2ccc(F)cc2)c1-c1ccncc1)c1cccc(Br)c1 [Example B-0073]	24	–
–	58	O=C(CCc1ccccc1)NCc1[nH]nc(-c2ccc(F)cc2)c1-c1ccncc1 [Example B-0076]	21	–
10000	–	COC(=O)CCC(=O)NCc1[nH]nc(-c2ccc(F)cc2)c1-c1ccncc1 [Example B-0077]	–	IC50 (human p38 kinase alpha; [3]): 800 nM
–	80	COC(=O)CCCC(=O)NCc1[nH]nc(-c2ccc(F)cc2)c1-c1ccncc1 [Example B-0078]	20	–
–	93	O=C(NCc1[nH]nc(-c2ccc(F)cc2)c1-c1ccncc1)C1CCCC1 [Example B-0079]	13	–
–	92	CSCCC(=O)NCc1[nH]nc(-c2ccc(F)cc2)c1-c1ccncc1 [Example B-0081]	13	–
6510	–	CC(=O)O[C@@H](C)C(=O)NCc1[nH]nc(-c2ccc(F)cc2)c1-c1ccncc1 [Example B-0083]	–	IC50 (human p38 kinase alpha; [3]): 220 nM
–	83	COc1cc(C(=O)NCc2[nH]nc(-c3ccc(F)cc3)c2-c2ccncc2)cc(OC)c1OC [Example B-0085]	21	–
–	96	COC(=O)CCCCCCC(=O)NCc1[nH]nc(-c2ccc(F)cc2)c1-c1ccncc1 [Example B-0088]	9	–
3330	–	O=C(NCc1[nH]nc(-c2ccc(F)cc2)c1-c1ccncc1)C1CC1 [Example B-0089]	–	IC50 (human p38 kinase alpha; [3]): 40 nM
–	91	CCOC(=O)CCCC(=O)NCc1[nH]nc(-c2ccc(F)cc2)c1-c1ccncc1 [Example B-0096]	22	–
> 1000	43	CC(C)(C)c1ccc(S(=O)(=O)NCc2[nH]nc(-c3ccc(F)cc3)c2-c2ccncc2)cc1 [Example B-0099]	–	–
5000	75	CCCCS(=O)(=O)NCc1[nH]nc(-c2ccc(F)cc2)c1-c1ccncc1 [Example B-0100]	–	–
–	81	O=[N+]([O-])c1cc(S(=O)(=O)NCc2[nH]nc(-c3ccc(F)cc3)c2-c2ccncc2)ccc1Cl [Example B-0102]	15	–
–	71	O=S(=O)(NCc1[nH]nc(-c2ccc(F)cc2)c1-c1ccncc1)c1cc(Cl)cc(Cl)c1O [Example B-0103]	6	–
2780	56	O=S(=O)(NCc1[nH]nc(-c2ccc(F)cc2)c1-c1ccncc1)c1ccc(F)cc1 [Example B-0104]	–	–
5000	78	CCS(=O)(=O)NCc1[nH]nc(-c2ccc(F)cc2)c1-c1ccncc1 [Example B-0105]	–	–
5000	62	CC(C)S(=O)(=O)NCc1[nH]nc(-c2ccc(F)cc2)c1-c1ccncc1 [Example B-0106]	–	–
5000	–	CS(=O)(=O)NCc1[nH]nc(-c2ccc(F)cc2)c1-c1ccncc1 [Example B-0107]	–	IC50 (human p38 kinase alpha; [3]): 270 nM
4850	61	COC(=O)c1ccccc1S(=O)(=O)NCc1[nH]nc(-c2ccc(F)cc2)c1-c1ccncc1 [Example B-0108]	–	–
